Data: the supplement of paper PMC11451515

Test system: NOMO1
Experiment: cell viability relative to DMSO control; higher = less cytotoxic
Conditions: 48 h
Summary of the method: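 Leukemia cells (NOMO1 or SEM, 500 cells/well; P12-Ichikawa, 1000 cells/well) were seeded in 5 μl in 1536-well plates after at least four passages of adaptation to each medium. They received library compounds in DMSO by pin dosing, 11 threefold points from 47 μM to 0.79 nM. Luminescence with CellTiter-Glo One was read after 48 h at 37°C. Viability is stated per plate relative to DMSO wells, with cell-free wells as background.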

[1] = HPLM + 10% dialyzed FBS, 0.000781 µM
[2] = HPLM + 10% dialyzed FBS, 0.00234 µM
[3] = HPLM + 10% dialyzed FBS, 0.00702 µM
[4] = HPLM + 10% dialyzed FBS, 0.0211 µM
[5] = HPLM + 10% dialyzed FBS, 0.0632 µM
[6] = HPLM + 10% dialyzed FBS, 0.19 µM
[7] = HPLM + 10% dialyzed FBS, 0.569 µM
[8] = HPLM + 10% dialyzed FBS, 1.71 µM
[9] = HPLM + 10% dialyzed FBS, 5.12 µM
[10] = HPLM + 10% dialyzed FBS, 15.4 µM
[11] = HPLM + 10% dialyzed FBS, 46.1 µM
[12] = RPMI 5 mM glucose + 10% FBS, 0.000781 µM
[13] = RPMI 5 mM glucose + 10% FBS, 0.00234 µM
[14] = RPMI 5 mM glucose + 10% FBS, 0.00702 µM
[15] = RPMI 5 mM glucose + 10% FBS, 0.0211 µM
[16] = RPMI 5 mM glucose + 10% FBS, 0.0632 µM
[17] = RPMI 5 mM glucose + 10% FBS, 0.19 µM
[18] = RPMI 5 mM glucose + 10% FBS, 0.569 µM
[19] = RPMI 5 mM glucose + 10% FBS, 1.71 µM
[20] = RPMI 5 mM glucose + 10% FBS, 5.12 µM
[21] = RPMI 5 mM glucose + 10% FBS, 15.4 µM
[22] = RPMI 5 mM glucose + 10% FBS, 46.1 µM
[23] = RPMI 5 mM glucose + 10% dialyzed FBS, 0.000781 µM
[24] = RPMI 5 mM glucose + 10% dialyzed FBS, 0.00234 µM
[25] = RPMI 5 mM glucose + 10% dialyzed FBS, 0.00702 µM
[26] = RPMI 5 mM glucose + 10% dialyzed FBS, 0.0211 µM
[27] = RPMI 5 mM glucose + 10% dialyzed FBS, 0.0632 µM
[28] = RPMI 5 mM glucose + 10% dialyzed FBS, 0.19 µM
[29] = RPMI 5 mM glucose + 10% dialyzed FBS, 0.569 µM
[30] = RPMI 5 mM glucose + 10% dialyzed FBS, 1.71 µM
[31] = RPMI 5 mM glucose + 10% dialyzed FBS, 5.12 µM
[32] = RPMI 5 mM glucose + 10% dialyzed FBS, 15.4 µM
[33] = RPMI 5 mM glucose + 10% dialyzed FBS, 46.1 µM

Structure (SMILES): CC(O)C1C2C(C)\C(=C(/N2C1=O)C(O)=O)SC3CNC(C3)C(=O)N(C)C (stereo not given)
- cell viability [1]: 75.7%
- cell viability [2]: 78.3%
- cell viability [3]: 85.5%
- cell viability [4]: 94.8%
- cell viability [5]: 99%
- cell viability [6]: 82.5%
- cell viability [7]: 87.7%
- cell viability [8]: 97.5%
- cell viability [9]: 82.8%
- cell viability [10]: 81.7%
- cell viability [11]: 88.7%
- cell viability [12]: 86.1%
- cell viability [13]: 84.1%
- cell viability [14]: 85.2%
- cell viability [15]: 89.1%
- cell viability [16]: 81.7%
- cell viability [17]: 84.4%
- cell viability [18]: 82.5%
- cell viability [19]: 81.6%
- cell viability [20]: 82.8%
- cell viability [21]: 88.4%
- cell viability [22]: 86.3%
- cell viability [23]: 68.1%
- cell viability [24]: 73.9%
- cell viability [25]: 72.6%
- cell viability [26]: 84.1%
- cell viability [27]: 84.2%
- cell viability [28]: 86.2%
- cell viability [29]: 85.6%
- cell viability [30]: 88.4%
- cell viability [31]: 82.6%
- cell viability [32]: 91.5%
- cell viability [33]: 91%

Structure (SMILES): Nc1nc(Cl)nc2c1ncn2[C@@H]1O[C@H](CO)[C@@H](O)[C@@H]1F
- cell viability [1]: 41.7%
- cell viability [2]: 70.8%
- cell viability [3]: 43.4%
- cell viability [4]: 33.3%
- cell viability [5]: 26.6%
- cell viability [6]: 18.2%
- cell viability [7]: 24.7%
- cell viability [8]: 23.9%
- cell viability [9]: 21.2%
- cell viability [10]: 18.1%
- cell viability [11]: 18.6%
- cell viability [12]: 77.2%
- cell viability [13]: 131%
- cell viability [14]: 49%
- cell viability [15]: 27.2%
- cell viability [16]: 20%
- cell viability [17]: 21.7%
- cell viability [18]: 16.9%
- cell viability [19]: 16.7%
- cell viability [20]: 18.4%
- cell viability [21]: 16%
- cell viability [22]: 13.5%
- cell viability [23]: 38.9%
- cell viability [24]: 63.2%
- cell viability [25]: 29.8%
- cell viability [26]: 25.7%
- cell viability [27]: 23%
- cell viability [28]: 23.6%
- cell viability [29]: 19.9%
- cell viability [30]: 16.4%
- cell viability [31]: 14.2%
- cell viability [32]: 19.7%
- cell viability [33]: 17.1%

Structure (SMILES): CNC(=O)[C@H](CC/1=C/N=C\2/C=C\C\C=C12)NC(=O)[C@H](CC(C)C)CC(=O)NO
- cell viability [1]: 108%
- cell viability [2]: 102%
- cell viability [3]: 113%
- cell viability [4]: 111%
- cell viability [5]: 120%
- cell viability [6]: 124%
- cell viability [7]: 123%
- cell viability [8]: 88.3%
- cell viability [9]: 78.6%
- cell viability [10]: 25.4%
- cell viability [11]: 25.6%
- cell viability [12]: 99.5%
- cell viability [13]: 109%
- cell viability [14]: 89.2%
- cell viability [15]: 102%
- cell viability [16]: 113%
- cell viability [17]: 103%
- cell viability [18]: 97%
- cell viability [19]: 97.3%
- cell viability [20]: 97.4%
- cell viability [21]: 11.9%
- cell viability [22]: 14.1%
- cell viability [23]: 114%
- cell viability [24]: 124%
- cell viability [25]: 112%
- cell viability [26]: 111%
- cell viability [27]: 120%
- cell viability [28]: 113%
- cell viability [29]: 109%
- cell viability [30]: 113%
- cell viability [31]: 112%
- cell viability [32]: 21.1%
- cell viability [33]: 22.5%

Structure (SMILES): N#C[C@H](O[C@@H]1O[C@H](CO[C@@H]2O[C@H](CO)[C@@H](O)[C@H](O)[C@H]2O)[C@@H](O)[C@H](O)[C@H]1O)c1ccccc1
- cell viability [1]: 108%
- cell viability [2]: 96.9%
- cell viability [3]: 120%
- cell viability [4]: 115%
- cell viability [5]: 99.1%
- cell viability [6]: 102%
- cell viability [7]: 100%
- cell viability [8]: 96.6%
- cell viability [9]: 103%
- cell viability [10]: 95.9%
- cell viability [11]: 19.5%
- cell viability [12]: 90.5%
- cell viability [13]: 117%
- cell viability [14]: 104%
- cell viability [15]: 89.4%
- cell viability [16]: 97.3%
- cell viability [17]: 93.5%
- cell viability [18]: 96.3%
- cell viability [19]: 84.5%
- cell viability [20]: 93.4%
- cell viability [21]: 85.1%
- cell viability [22]: 16%
- cell viability [23]: 106%
- cell viability [24]: 110%
- cell viability [25]: 103%
- cell viability [26]: 115%
- cell viability [27]: 109%
- cell viability [28]: 96.2%
- cell viability [29]: 101%
- cell viability [30]: 97.6%
- cell viability [31]: 98.1%
- cell viability [32]: 88.8%
- cell viability [33]: 9.62%

Structure (SMILES): N=C1N[C@H]2[C@H](CS[C@H]2CCCCC(=O)O)N1
- cell viability [1]: 86.7%
- cell viability [2]: 115%
- cell viability [3]: 121%
- cell viability [4]: 120%
- cell viability [5]: 139%
- cell viability [6]: 126%
- cell viability [7]: 146%
- cell viability [8]: 129%
- cell viability [9]: 138%
- cell viability [10]: 118%
- cell viability [11]: 137%
- cell viability [12]: 113%
- cell viability [13]: 114%
- cell viability [14]: 110%
- cell viability [15]: 109%
- cell viability [16]: 111%
- cell viability [17]: 123%
- cell viability [18]: 107%
- cell viability [19]: 117%
- cell viability [20]: 112%
- cell viability [21]: 120%
- cell viability [22]: 110%
- cell viability [23]: 109%
- cell viability [24]: 122%
- cell viability [25]: 119%
- cell viability [26]: 132%
- cell viability [27]: 121%
- cell viability [28]: 135%
- cell viability [29]: 121%
- cell viability [30]: 131%
- cell viability [31]: 119%
- cell viability [32]: 143%
- cell viability [33]: 136%
